In patent EP1967193A1, “Enhancement of anticancer therapy by flavonoids” (Vrije Universiteit Medisch Centrum (VUMC), priority 2007, dated 2008):
Where “and” joins values, the source holds several entries; their conditions need not be identical. Equal values may be shown once. Entries after “also recorded” stand apart in the source; their conditions may differ.

Tests used:
[1] = system: cardiomyocytes; conditions: cited from earlier work
[2] = system: STS; conditions: STS patients without prior chemotherapy; DOX alone; cited from earlier work
[3] = system: doxorubicin-induced chronic cardiotoxicity; conditions: preclinical, cited from earlier work
[4] = system: metastatic solid tumors; test: Phase II study: assessment of tumor response by CT-scan, ECOG criteria; format: in vivo, human; parameters: key to Response on dox: PD = progressive disease; PR = partial remission; SD = stabile disease; conditions: for partial remission maintained, time after the start of chemotherapy: maintained up to the present
Description: Patients with metastatic solid tumors were entered when they received a DOX-based chemotherapy regimen with a dosage of DOX ≥ 50 mg/m^2/ cycle and an infusion duration ≤ 1 hour. […] The left ventricular ejection fraction (LVEF) was > 50%. Patients were excluded if they had received prior anthracyclines, had prior or actual cardiovascular disease or had prior radiotherapy to the mediastinum.
(§1) MonoHER was administered as a 10 min intravenous infusion at a dose of 1500 mg/m^2 60 min before every DOX administration. If cardiotoxicity would be observed in the first three evaluable patients, administration according to this dosing scheme would be changed and the following patients would receive DOX infusion either immediately after monoHER (because in plasma and heart Cmax of monoHER is obtained immediately after the end of infusion (17, 19)) or with an interval of 2 hours (to give monoHER the opportunity to convert into an active metabolite, if any).
Assessment of tumor response was done every 2-3 cycles by CT-scan, using standard ECOG criteria (24).

[5] = Phase II study: monitoring of cardiac function (LVEF, ECG); format: in vivo, human
Description: (§2) Before starting the study patients were evaluated by a full blood count, serum biochemistry including liver function tests, lactate dehydrogenase (LDH) and cholesterol. Risk factors for cardiovascular disease were also evaluated. An LVEF and an ECG were performed before entry into the study.
(§3) Every subsequent administration of monoHER and DOX was preceded by a full blood count, liver enzymes, serum creatinine and a routine 12-lead ECG. A complete blood count was also done 10 days after the chemotherapy.
(§4) After a cumulative dose of 300 mg/m^2 DOX an endomyocardial biopsy was performed and measurement of the LVEF was repeated. The latter was also done at least 3 weeks after the last dose of DOX and a biopsy was repeated if possible. For logistic reasons, the biopsy of patient #8 was done after a cumulative dose of 375 mg/m^2 DOX.
Patients went off study in case of progressive disease, a serious cardiac event, or other events that precluded further treatment. Criteria described by Shapiro et al. (22) were used for diagnosis of cardiac events. Episodes of cardiac dysfunction were characterized according to the New York Heart Association functional classification (23).

[6] = system: cardiomyocytes; test: Phase II study: endomyocardial biopsy scored by electron microscopy for DOX-induced cardiotoxicity; format: in vivo, human; conditions: for Biopsy score cum.dose/Δt/grade: left ventricle; for Cum.dose / biopsy score / LVEF: biopsy score: second biopsy
Description: In this example, we evaluated the cardioprotective properties of monoHER given as a 10 minute i.v infusion at a dose of 1500 mg/m^2 in patients with metastatic cancer treated with DOX. For the early detection of DOX-induced cardiotoxicity endomyocardial biopies were taken, because of its high sensitivity and high specificity (18).
as §1, §4
During a left heart catheterization, a 104 cm, 7 french biopsy forceps was used to obtain tissue from the left ventricle. Three to four specimens 0.5 to 1 mm in diameter were obtained. The specimens were fixed in 4% buffered formaldehyde and prepared for electron microscopy.
After fixation in 4% buffered formaldehyde, the heart tissue was post fixed in 1% osmium tetroxide. The tissue was then dehydrated through a graded series of ethanol solutions of 70-95% and embedded in JB-4 Plus resin. Thereafter, 0.5-3.0 µm thick sections were cut with a glass knife. These semithin sections were processed for electron microscopy. Cardiomyocytes with more than 2 microvacuoles, macrovacuoles and/or loss of myofibrils were counted as deviant. The morphological grade determined from the specimens examined by electron microscopy was scored on a 6-point scale previously described by Billingham and Bristow (20, 21): in grade 0 cells are normal; in grade 1, 1.5, 2 and 2.5 deviant cells are < 5%, 5-15%, 16 - 25 % and 26 - 35%, respectively; in grade 3 cell damage is present in more than 35% of cells.

[7] = Detection of metabolites of monoHER
[8] = Phase II study: adverse events and laboratory monitoring; format: in vivo, human
Description: as §1, §2, §3

[9] = cited from earlier work
[10] = patient 03, cum. dose 480 mg/m^2 DOX
[11] = patient 04, cum. dose 450 mg/m^2 DOX

COc1cccc2c1C(=O)c1c(O)c3c(c(O)c1C2=O)C[C@@](O)(C(=O)CO)C[C@@H]3O[C@H]1C[C@H](N)[C@H](O)[C@H](C)O1 [DOX, doxorubicin]
patients with anthracycline-induced myocardial damage ([1]; cumulative DOX doses of 240 mg/m^2, data of Billingham et al.): nearly all patients
biopsy score expected after DOX alone ([1]; cumulative dose of 300 mg/m^2 DOX, linear regression analysis of Torti et al., right ventricle): 1.4
objective responses on DOX [2]: approximately 25%

C[C@@H]1O[C@@H](OC[C@H]2O[C@@H](Oc3c(-c4ccc(O)c(O)c4)oc4cc(OCCO)cc(O)c4c3=O)[C@H](O)[C@@H](O)[C@@H]2O)[C@H](O)[C@H](O)[C@H]1O [monoHER, 7-monohydroxyethylrutoside]
influence on the antitumor activity of doxorubicin ([3]; in vitro or in vivo): did not influence the antitumor activity of doxorubicin
cardioprotection against doxorubicin-induced chronic cardiotoxicity ([3]; animals): dose-dependent cardioprotection
patients with partial remission / objective remission ([4]; 4 patients with metastatic soft tissue sarcoma (STS), DOX preceded by monoHER 1500 mg/m^2): Three and 3 of the four
effect on antitumour activity of DOX ([4]; STS patients): enhances the antitumour activity of DOX
Response on dox ([4]; patient 01, Breast cancer, total DOX 100 mg/m^2, monoHER 1500 mg/m^2 i.v. 60 min before every DOX): PD
Response on dox ([4]; patient 02, Adrenal cortical cancer, total DOX 150 mg/m^2, monoHER 1500 mg/m^2 i.v. 60 min before every DOX): PD
Response on dox ([4]; patient 03, Malignant peripheral nerve sheet tumor, total DOX 480 mg/m^2, monoHER 1500 mg/m^2 i.v. 60 min before every DOX): PR
Response on dox ([4]; patient 04, Malignant fibrous histiocytoma, total DOX 450 mg/m^2, monoHER 1500 mg/m^2 i.v. 60 min before every DOX): PR
Response on dox ([4]; patient 05, Breast cancer, total DOX 100 mg/m^2, monoHER 1500 mg/m^2 i.v. 60 min before every DOX): PD
Response on dox ([4]; patient 06, Breast cancer, total DOX 300 mg/m^2, monoHER 1500 mg/m^2 i.v. 60 min before every DOX): SD
Response on dox ([4]; patient 07, Malignant fibrous histiocytoma, total DOX 300 mg/m^2, DOX immediately after monoHER 1500 mg/m^2 i.v.): PR
Response on dox ([4]; patient 08, Malignant fibrous histiocytoma, total DOX 375 mg/m^2, DOX 2 h after monoHER 1500 mg/m^2 i.v.): SD
duration of partial remission ([4]; patient #3, then progressive disease): nine
partial remission maintained, time after the start of chemotherapy ([4]; patient #4): ≥ 30 months
partial remission maintained, time after the start of chemotherapy ([4]; patient #7): ≥ 16 months
duration of stable disease ([4]; patient #8, continuing DOX up to cumulative dose of 495 mg/m^2): at least 7 months
patients in whom the LVEF decreased ([5]; after 300-375 mg/m^2 DOX, no LVEF information for patient #6): 4/5
ECG during therapy ([5]; all patients): remained unchanged
cardiac dysfunction ([5]; all patients, during therapy): no cardiac dysfunction occurred
LVEF 10 months after last cycle ([5]; patient 03): ND / 51%
LVEF after ≥ 300 mg/m^2 ([5]; patient 03, LVEF before dox 71%, Δt 60 min): 67%
Cum.dose / biopsy score / LVEF: LVEF [5, 10]: 53%
LVEF 10 months after last cycle ([5]; patient 04): 62%
LVEF after ≥ 300 mg/m^2 ([5]; patient 04, LVEF before dox 72%, Δt 60 min): 60%
Cum.dose / biopsy score / LVEF: LVEF [5, 11]: 66%
LVEF after ≥ 300 mg/m^2 ([5]; patient 07, LVEF before dox 75%, Δt 10 min): 63%
LVEF after ≥ 300 mg/m^2 ([5]; patient 08, LVEF before dox 65%, Δt 120 min, 375 mg/m^2 DOX): 63%
decline of LVEF compared to the ejection fraction before start of the study ([5]; patient #3, after 480 mg/m2 DOX, 71% to 53%): 25%
decline of LVEF ([5]; patient #4, 72% before chemotherapy to 60% after 300 mg/m2 DOX): > 15%
LVEF decrease in comparison to the initial LVEF ([5]; two other patients): 4-6%
LVEF drop in comparison to the initial LVEF ([5]; two patients): 16%
mean biopsy score according to Billingham ([6]; 5 patients, median cumulative dose 300 mg/m2 DOX, monoHER 1500 mg/m^2 before DOX): 2.7
cardioprotective effect against DOX-induced cardiotoxicity ([6]; five patients with biopsy, monoHER 1500 mg/m^2): no cardioprotective effect; also recorded: did not protect against DOX-induced cardiotoxicity
Biopsy score cum.dose/Δt/grade ([6]; patient 03, cum. dose 300 mg/m^2 DOX, Δt 60 min after monoHER 1500 mg/m^2): 300 / 60 / Grade 3 (in grade 3 cell damage is present in more than 35% of cells)
Cum.dose / biopsy score / LVEF: biopsy score [6, 10]: 3 (in grade 3 cell damage is present in more than 35% of cells)
Cum.dose / biopsy score / LVEF: biopsy score [6, 11]: 2.5 (in grade 1, 1.5, 2 and 2.5 deviant cells are < 5%, 5-15%, 16 - 25 % and 26 - 35%, respectively)
Biopsy score 10 months after last cycle ([6]; patient 04, third biopsy): 2 (in grade 1, 1.5, 2 and 2.5 deviant cells are < 5%, 5-15%, 16 - 25 % and 26 - 35%, respectively)
Biopsy score cum.dose/Δt/grade ([6]; patient 06, cum. dose 300 mg/m^2 DOX, Δt 60 min after monoHER 1500 mg/m^2): 300 / 60 / Grade 2.5 (in grade 1, 1.5, 2 and 2.5 deviant cells are < 5%, 5-15%, 16 - 25 % and 26 - 35%, respectively)
Biopsy score cum.dose/Δt/grade ([6]; patient 07, cum. dose 300 mg/m^2 DOX, Δt 10 min after monoHER 1500 mg/m^2): 300 / 10 / Grade 3 (in grade 3 cell damage is present in more than 35% of cells)
Biopsy score cum.dose/Δt/grade ([6]; patient 08, cum. dose 375 mg/m^2 DOX, Δt 120 min after monoHER 1500 mg/m^2): 375 / 120 / Grade 3 (in grade 3 cell damage is present in more than 35% of cells)
microvacuoles present in % of the cardiomyocytes ([6]; patient #3, after 300 mg/m^2 DOX, monoHER 60 min before DOX): 52%
microvacuoles present in % of the cardiomyocytes ([6]; patient #4, after 300 mg/m^2 DOX, monoHER 60 min before DOX): 20%
cardiomyocytes with > 2 small vacuoles per cardiomyocyte ([6]; patient #6, after 300 mg/m^2 DOX, monoHER 60 min before DOX): 33%
microvacuolization in % of the cardiomyocytes ([6]; patient #7, DOX immediately after monoHER): 60%
microvacuolization in % of the cardiomyocytes ([6]; patient #8, DOX 2 h after monoHER): 49%
metabolites of monoHER [7]: no metabolites of monoHER have been detected until now
adverse events during monoHER infusion ([8]; 8 patients, sensation of fullness in stomach (one), itching in skin of neck (one), during each cycle): two patients reported adverse events
leucopenia ([8]; due to chemotherapy, recovered before the start of the next cycle): all patients developed leucopenia
liver enzymes and serum creatinine ([8]; monoHER 1500 mg/m^2 plus DOX): No disturbances
Cmax and AUC ([9]; dose 1500 mg/m^2): comparable to those obtained in mice under protecting conditions
side effects ([9]; up to a dose of 1500 mg/m^2): No serious side effects were observed
